As usually defined, the GI50 is the concentration giving 50% growth inhibition.

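All cell lines were grown in 96-well plates and treated with compound for 48 hours. GI50: concentration for 50% inhibition of growth.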 Calls of active or inactive are those of the source. No stated cut-off is given here; in the data, active = GI50 up to about 1.1 µM and inactive = higher.

The results in this text go back to ChEMBL document CHEMBL1201862, “PubChem BioAssay data set” (2004).

Among the test systems are RXF 393; DU-145; SNB-19; UACC-62; PC-3; SW-620; CCRF-CEM; SN12C; TK-10; HCC 2998; MDA-N; NCI-H23; SK-OV-3; COLO 205; OVCAR-8; OVCAR-4; SK-MEL-2; SK-MEL-5; MDA-MB-231; Malme-3M.
Common to all, as to test: DTP human tumour cell line panel, 48 h

Turning to `CC(=O)O[C@@H]1C=C(C)[C@H](CBr)O[C@@]2(C)CC[C@H](Br)C(C)(C)[C@H]12`, the GI50 in the test with RXF 393, in the test with DU-145, in the test on SNB-19, with UACC-62, in the test with PC-3 and in the test with SW-620 was > 100 µM (inactive) each time. For the same compound, the GI50 in the test on CCRF-CEM was 19.4 µM (inactive); in the test with SN12C it was > 100 µM (inactive); with TK-10 it was > 100 µM (inactive); in the test with HCC 2998, > 100 µM (inactive); with MDA-N it was > 100 µM (inactive); in the test with NCI-H23, > 100 µM (inactive). Moreover, the GI50 in the test with SK-OV-3, in the test with COLO 205, with OVCAR-8, with OVCAR-4, in the test with SK-MEL-2 and with SK-MEL-5 was > 100 µM (inactive) throughout. Also, the GI50 in the test on MDA-MB-231 was > 100 µM (inactive).

As to `CCOP(=O)(CN1CCNCCNCC1)OCC`, the GI50 in the test on DU-145, in the test with SNB-19, in the test with UACC-62, with PC-3, in the test with SW-620 and with CCRF-CEM was > 100 µM (inactive) each time. The GI50 in the test with SN12C, in the test on TK-10, in the test on HCC 2998, in the test with MDA-N, in the test with SK-OV-3 and in the test on COLO 205 was > 100 µM (inactive) each time. For the same compound, the GI50 in the test with OVCAR-8, in the test with OVCAR-4, with SK-MEL-2, in the test on SK-MEL-5 and in the test with MDA-MB-231 was > 100 µM (inactive) each time.

Take `Cc1cn(CCOCCOC(=O)NC(CCCNC(=N)N)C(=O)O)c(=O)[nH]c1=O` (centres undefined): the GI50 in the test with RXF 393, in the test with DU-145, with SNB-19, with UACC-62, with PC-3 and with SW-620 was > 100 µM (inactive) throughout. The GI50 in the test with CCRF-CEM, in the test on SN12C, in the test on TK-10, in the test with HCC 2998, with MDA-N and in the test on NCI-H23 was > 100 µM (inactive) in each case. In addition, the GI50 in the test on SK-OV-3, with COLO 205, in the test on OVCAR-4, in the test on SK-MEL-2 and in the test with MDA-MB-231 was > 100 µM (inactive) throughout.

In the case of `COc1ccc2c(c1)c(CC(=O)O)c(C)n2C(=O)c1ccc(Cl)cc1`, the GI50 with DU-145 was > 100 µM (inactive); in the test with SNB-19, 56.9 µM (inactive); with Malme-3M, 68.7 µM (inactive); with PC-3, 39 µM (inactive); in the test on SW-620, > 100 µM (inactive); in the test on CCRF-CEM, 33.8 µM (inactive). The GI50 with SN12C is > 100 µM (inactive); in the test with TK-10, 36.6 µM (inactive); with HCC 2998, 35.6 µM (inactive); with MDA-N, > 100 µM (inactive); in the test on NCI-H23 it was 57 µM (inactive); with COLO 205, > 100 µM (inactive). The GI50 with OVCAR-8 was 77.6 µM (inactive); in the test on OVCAR-4, > 100 µM (inactive); with SK-MEL-2 it was 60.3 µM (inactive); in the test on SK-MEL-5 it was > 100 µM (inactive); in the test on MDA-MB-231, > 100 µM (inactive).

With `CCCCC1Cc2ccccc2-c2nc3ccccc3n21` (centres undefined), the GI50 with RXF 393 is 15.5 µM (inactive); in the test on DU-145 it was 18.4 µM (inactive); with PC-3, 10.3 µM (inactive); in the test on SW-620 it was 16.4 µM (inactive); in the test with CCRF-CEM, 0.0153 µM (active); in the test on TK-10, 17.4 µM (inactive). The GI50 in the test with HCC 2998 was 14.2 µM (inactive); with MDA-N it was 15.1 µM (inactive); with NCI-H23, 14.9 µM (inactive); in the test with SK-OV-3, 20.5 µM (inactive); in the test on OVCAR-8 it was 18 µM (inactive); in the test with OVCAR-4, 12.9 µM (inactive). In addition, the GI50 was 16.4 µM (inactive) in the test with SK-MEL-2, 14.6 µM (inactive) with SK-MEL-5 and 17.3 µM (inactive) in the test with MDA-MB-231.

Consider `O=C(NNS(=O)(=O)c1ccccc1)c1csc(NC(=S)NC2CCCCC2)n1`, for which the GI50 in the test on DU-145 is 27.2 µM (inactive); with Malme-3M, 35.4 µM (inactive); in the test on UACC-62 it was 23.7 µM (inactive); with PC-3 it was 34.2 µM (inactive); with SW-620, 25 µM (inactive); in the test with CCRF-CEM, 39.6 µM (inactive). For the same compound, the GI50 with SN12C was 20.8 µM (inactive); in the test with TK-10, 35.6 µM (inactive); in the test with HCC 2998, 29 µM (inactive); in the test on MDA-N, 18.5 µM (inactive); with NCI-H23, 48 µM (inactive); in the test on SK-OV-3, 42.2 µM (inactive). Moreover, the GI50 in the test with COLO 205 was 19.3 µM (inactive); in the test with OVCAR-8, 33.5 µM (inactive); in the test on OVCAR-4, 34.6 µM (inactive); with SK-MEL-2 it was 22.3 µM (inactive); with SK-MEL-5, 14.4 µM (inactive); with MDA-MB-231, 22.8 µM (inactive).

As to `COc1cc(Br)cc2cc(C3=CSC4=NCCN34)c(=O)oc12`, the GI50 in the test on RXF 393 was 17.5 µM (inactive); with DU-145, 17.8 µM (inactive); in the test on SNB-19, 18.1 µM (inactive); in the test with UACC-62, 17.8 µM (inactive); in the test on PC-3, 18.3 µM (inactive); in the test with SW-620 it was 25.3 µM (inactive). The GI50 is 25.8 µM (inactive) with CCRF-CEM; 17.5 µM (inactive) in the test on SN12C; 18.8 µM (inactive) with TK-10; 18.5 µM (inactive) in the test on MDA-N; 20.1 µM (inactive) in the test with NCI-H23; 27.9 µM (inactive) in the test with SK-OV-3. For the same compound, the GI50 in the test on COLO 205 is 20.7 µM (inactive); in the test with OVCAR-8, 17.8 µM (inactive); with OVCAR-4 it was 18.2 µM (inactive); with SK-MEL-2 it was 20.3 µM (inactive); in the test with SK-MEL-5, 20 µM (inactive); in the test on MDA-MB-231, 19.6 µM (inactive).

As for `COc1cc(/C=C2\N=C(c3ccccc3)N(c3ccc(C(=O)c4ccccc4)cc3N3C(=O)/C(=C/c4ccc(O)c(OC)c4)N=C3c3ccccc3)C2=O)ccc1O`, the GI50 was 17 µM (inactive) with DU-145; 19.5 µM (inactive) in the test with SNB-19; 9.62 µM (inactive) with UACC-62; 11.8 µM (inactive) in the test on PC-3; 7.53 µM (inactive) with SW-620; 5.45 µM (inactive) in the test on CCRF-CEM. Also, the GI50 was 17.9 µM (inactive) in the test with SN12C; 18.5 µM (inactive) in the test on TK-10; 2.91 µM (inactive) with HCC 2998; 3.75 µM (inactive) in the test on MDA-N; 12.1 µM (inactive) in the test on SK-OV-3; 17.9 µM (inactive) in the test on COLO 205. The GI50 in the test with OVCAR-8 is 12.7 µM (inactive); with OVCAR-4 it was 14.9 µM (inactive); in the test with SK-MEL-2, 13.4 µM (inactive); in the test with SK-MEL-5 it was 7.76 µM (inactive); in the test with MDA-MB-231, 12.9 µM (inactive).

On to `Cc1cn(C2OC(CO[Si](C)(C)C(C)(C)C)C(N(C)O[Si](C)(C)C(C)(C)C)C2[Se]c2ccccc2)c(=O)[nH]c1=O` (centres undefined), for which the GI50 in the test on DU-145 was 8.93 µM (inactive); in the test on SNB-19 it was 5.82 µM (inactive); with Malme-3M, 11.6 µM (inactive); in the test on UACC-62, 8.75 µM (inactive); in the test on PC-3, 3.85 µM (inactive); in the test with SW-620 it was 3.48 µM (inactive). Besides, the GI50 with CCRF-CEM is 11.8 µM (inactive); with SN12C it was 5.65 µM (inactive); with TK-10, 5.24 µM (inactive); with HCC 2998 it was 0.0325 µM (active); in the test with MDA-N it was 8.93 µM (inactive); with NCI-H23, 4.6 µM (inactive). Further, the GI50 in the test on SK-OV-3 is 17.4 µM (inactive); in the test with COLO 205, 5.38 µM (inactive); in the test on OVCAR-8 it was 3.74 µM (inactive); with OVCAR-4, 2.87 µM (inactive); in the test on SK-MEL-2, 7.6 µM (inactive); with SK-MEL-5 it was 4.16 µM (inactive). Besides, the GI50 in the test with MDA-MB-231 is 6.27 µM (inactive).

As for `O=C(/C=C/c1c[nH]c2ccccc12)c1ccccc1O`, the GI50 in the test on DU-145 is 11.7 µM (inactive); in the test on SNB-19, 16.5 µM (inactive); in the test with Malme-3M, 11.7 µM (inactive); in the test on UACC-62 it was 8.17 µM (inactive); in the test with PC-3, 4.03 µM (inactive); in the test with SW-620, 18.5 µM (inactive). For the same compound, the GI50 with SN12C was 13.8 µM (inactive); with TK-10 it was 18.3 µM (inactive); in the test on HCC 2998 it was 11 µM (inactive); with MDA-N it was 5.5 µM (inactive); in the test with SK-OV-3, 15.1 µM (inactive); in the test on OVCAR-8, 12.9 µM (inactive). Moreover, the GI50 is 10.7 µM (inactive) in the test on OVCAR-4, 3.55 µM (inactive) in the test on SK-MEL-2 and 3.18 µM (inactive) with MDA-MB-231.

For the compound `c1cc(-c2cscc2-c2ccsc2)cs1`, the GI50 was 28.4 µM (inactive) with RXF 393; > 100 µM (inactive) with DU-145; 47.3 µM (inactive) in the test on UACC-62; 27.5 µM (inactive) with PC-3; 57.9 µM (inactive) in the test with SW-620; 52.6 µM (inactive) in the test with CCRF-CEM. For the same compound, the GI50 was > 100 µM (inactive) with SN12C; 88.5 µM (inactive) in the test on TK-10; 27.4 µM (inactive) in the test with HCC 2998; 40.2 µM (inactive) with MDA-N; 25.7 µM (inactive) with NCI-H23; > 100 µM (inactive) with SK-OV-3. Also, the GI50 in the test with COLO 205 was > 100 µM (inactive); with OVCAR-4, 37.8 µM (inactive); in the test on SK-MEL-2, 4.65 µM (inactive); with SK-MEL-5, 31 µM (inactive); in the test with MDA-MB-231, > 100 µM (inactive).
